# In patent US12233047B2, “Pharmaceutical combination and use thereof” (ASCENTAGE PHARMA (SUZHOU) CO., LTD., priority 2019, dated 2025):
# Experiments:
# FLT3 (N841I) = target: T1, FLT3 (N841I) (Homo sapiens, UniProt P36888, N841I); experiment: KINOMEscan kinase binding assay, FLT3 (N841I)
# T1 construct: host or cells: T7 phage in E. coli (BL21-derived) or HEK-293
# T1 sequence (P36888 27-993 N841I): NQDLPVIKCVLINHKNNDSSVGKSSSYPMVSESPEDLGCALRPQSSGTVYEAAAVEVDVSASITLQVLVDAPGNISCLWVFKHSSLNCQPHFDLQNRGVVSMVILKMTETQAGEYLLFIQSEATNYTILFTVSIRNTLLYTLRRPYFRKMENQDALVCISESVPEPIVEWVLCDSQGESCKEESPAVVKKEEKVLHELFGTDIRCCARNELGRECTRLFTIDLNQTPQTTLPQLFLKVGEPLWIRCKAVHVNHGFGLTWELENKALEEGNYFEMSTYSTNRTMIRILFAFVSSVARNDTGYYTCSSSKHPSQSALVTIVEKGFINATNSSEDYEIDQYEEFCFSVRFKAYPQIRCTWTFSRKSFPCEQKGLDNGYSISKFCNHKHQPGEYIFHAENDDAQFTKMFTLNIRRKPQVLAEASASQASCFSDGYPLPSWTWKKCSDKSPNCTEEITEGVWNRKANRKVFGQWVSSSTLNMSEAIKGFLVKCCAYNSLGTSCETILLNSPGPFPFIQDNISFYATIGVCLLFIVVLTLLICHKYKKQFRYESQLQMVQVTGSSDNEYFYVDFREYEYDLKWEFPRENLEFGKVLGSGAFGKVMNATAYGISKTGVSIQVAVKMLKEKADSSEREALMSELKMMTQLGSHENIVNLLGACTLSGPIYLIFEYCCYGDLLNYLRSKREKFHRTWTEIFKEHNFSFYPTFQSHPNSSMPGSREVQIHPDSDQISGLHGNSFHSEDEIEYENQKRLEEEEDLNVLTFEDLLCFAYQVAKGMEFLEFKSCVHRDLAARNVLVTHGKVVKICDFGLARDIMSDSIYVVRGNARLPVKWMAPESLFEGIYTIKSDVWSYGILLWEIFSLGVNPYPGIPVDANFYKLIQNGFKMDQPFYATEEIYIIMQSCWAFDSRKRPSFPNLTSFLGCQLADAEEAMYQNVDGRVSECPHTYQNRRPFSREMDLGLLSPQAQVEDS
# Experimental: The kinase assay was conducted using KINOMEscan™.
# Kinase-tagged T7 phage strains were grown in parallel in 24-well blocks in an E. coli host derived from the BL21 strain. E. coli were grown to log-phase and infected with T7 phage from a frozen stock (multiplicity of infection=0.4) and incubated with shaking at 32° C. until lysis (90-150 minutes). The lysates were centrifuged (6,000×g) and filtered (0.2 μm) to remove cell debris. The remaining kinases were produced in HEK-293 cells and subsequently tagged with DNA for qPCR detection. Streptavidin-coated magnetic beads were treated with biotinylated small molecule ligands for 30 minutes at room temperature to generate affinity resins for kinase assays. The liganded beads were blocked with excess biotin and washed with blocking buffer (SeaBlock (Pierce), 1% BSA, 0.05% Tween 20, 1 mM DTT) to remove unbound ligand and to reduce non-specific phage binding. Binding reactions were assembled by combining kinases, liganded affinity beads, and test compound (Compound 23) in 1× binding buffer (20% SeaBlock, 0.17×PBS, 0.05% Tween 20, 6 mM DTT). Test compound were prepared as 40× stocks in 100% DMSO and directly diluted into the assay. All reactions were performed in polypropylene 384-well plates in a final volume of 0.04 ml. […] The kinase concentration in the eluates was measured by qPCR. […]
# [1] = test system: Human AML cell line MOLM-13 (FLT3-ITD positive and wild type TP53 gene); experiment: Human MOLM-13 AML systemic mouse xenograft model, survival; assay type: in vivo; conditions: MOLM-13 systemic model, Compound 23 10 mg/kg, Compound C 20 mg/kg, p.o. q2d × 21 d
# Experimental: The formulation of Compound C was prepared as homogenous suspension in 0.2% HPMC using a mortar. The drug suspension was prepared every three days or once a week and placed at 4° C. when not in use. Before use, the drug suspension was placed at room temperature and shaken to mix well. The formulation of Compound C was administered to mice via p.o. in a volume of 10 mL/kg.
# The formulation of Compound 23 was prepared in 0.2% HPMC in a mortar to generate homogenous suspension. The drug suspension was prepared once every other day and placed at 4° C. when not in use. Before use, the drug suspension was placed at room temperature and shaken well. The formulation of Compound 23 was administered to mice via p.o. in a volume of 10 mL/kg.
# MOLM-13 cell lines (Human AML cell line MOLM-13 (FLT3-ITD positive and wild type TP53 gene)) were maintained in RPMI-1640 (Cat. C11875500BT, GIBCO) with 10% fetal bovine serum (Cat. 10099-141, GIBCO), 1% L-glutamine, 100 U/mL penicillin G and 100 μg/mL streptomycin (Cat. GNM15140, Hangzhou Geno Biomedical Technology Co., Ltd). Cells were incubated at 37° C. in a humidified incubator with 5% CO2.
# Six to eight weeks old, female, NOD SCID and BALB/c nude mice were used. Animals were obtained from Vital River Laboratories (VRL, Beijing, China, license number SCXK(J) 2012-0001 and SCXK(J) 2016-0006). The body weights were 17-24 g.
# MOLM-13 systemic tumor model were established by injecting tumor cells into the tail vein (10×10^6 cells/mouse) under the sterile condition. To establish the MOLM-13 systemic model, all animals were intraperitoneally injected (i.p.) with cyclophosphamide (150 mg/kg) for two consecutive days before the inoculation of MOLM-13 cells. On the third day after cell inoculation, animals were randomized into 10 mice per group and treatment was initiated (day 1) according to Table 2.
# The animals were euthanized when the experimental animals had symptoms such as weight loss and weight loss greater than 20%, limb paralysis, tumor metastasis to the eye causing ocular protrusion, tumor metastasis to the abdominal cavity causing abdominal enlargement. These severe health issues were considered as the same as animal death caused by tumor growth and the affected animals were sacrificed immediately.
# The date of the last mouse died (the last measurement) was used for analysis of median overall survival and the generation of Kaplan-Meier plots. Survival curves of different treatment groups were compared using log-rank test with Bonferroni's multiple test. All data were analyzed in SPSS version 18.0 (IBM, Armonk, NY, U.S.A.). Prism version 6 (GraphPad Software Inc., San Diego, CA, U.S.A.) was used for graphic presentation.
structure (smiles),measurement,setting,value
"Cc1ccc(C(=O)Nc2ccc(CN3CCN(C)CC3)c(C(F)(F)F)c2)cc1C#Cc1cnc2[nH]ncc2c1 [Compound 23, 3-(2-(1H-pyrazolo[3,4-b]pyridin-5-yl)ethynyl)-4-methyl-N-(4-((4-methylpiperazin-1-yl)methyl)-3-(trifluoromethyl)phenyl)benzamide]",% Ctrl@10 nM,FLT3 (N841I); 10 nM,2.9 % Ctrl
same,% Ctrl@100 nM,FLT3 (N841I); 100 nM,0.05 % Ctrl
same,Median survival time of mice,[1]; vehicle 19 days,29 days
same,Prolonged survival time of mice,[1]; versus vehicle,10 days
